# Peptide text beside a SMILES is read from it. * marks the point of attachment. Cbz = O=C(OCc1ccccc1)*
# Experiments:
# [1] = MTT viability assay, 72 h; format: cell-based; details: human, HeLa-CD4-LTR-LacZ cells, mean ± SD, n = 2 to 3
# Experimental: The assay was performed with MTT [3-(4,5-dimethyl-2-thiazolyl)-2,5-diphenyl-2H-tetrazolium bromide] as described in reference.
# NL4-3 strain = assay: HIV-1 NL4-3 infection of HeLa-CD4-LTR-LacZ reporter cells, LacZ measured 72 h later; format: cell-based; details: Human immunodeficiency virus 1, NL43; HeLa-CD4-LTR-LacZ cells infected with NL4-3, LacZ at 72 h; mean ± SD, n = 2 to 3; read-out: IC50
# Text: To understand the structure-function relationship of the dCA molecule with respect to our structural model, we synthesized and characterized the ability of 11 analogs of dCA to inhibit HIV infection (Table 2). […] We used HeLa-CD4 cells stably expressing the HIV-1 5′ LTR driving β-galactosidase production (HeLa-CD4-LTR-LacZ cells) as a reporter for the infection with isolate NL4-3. Table 2 summarizes the IC50, 50% cytotoxic concentration (CC50), and therapeutic index (TI) for each compound. The loss of dCA activity was directly associated with the positioning and the chemical environment of the azote on the F ring and the presence of oxygen in ring B. Moreover, the E-F “skeleton angle” and the distance between the A-B-C-D and F rings affected the activity by more than 50-fold (analogs 7 and 10).
# The activity of Tat in HeLa-CD4-LTR-Luc and OM10.1 cells was verified by a transactivation assay as described in reference. In HeLa-CD4-LTR-LacZ cells, the assay was performed as described in reference. A detailed protocol is provided in Text S1.
# Transactivation assay. In HeLa-CD4-LTR-Luc cells and OM10.1 cells. The activity of Tat was verified by a transactivation assay as previously reported (13). Briefly, HeLa-CD4-LTR-Luc cells and OM10.1 were plated at 1×10^5 and 8x10^5 cells per well of a 6-well plate respectively. The following day, recombinant Tat protein was added to the cells in culture media without serum and in the presence of 100 μM of Chloroquine. Five hours later, serum was added at 5 % to the culture media. Cells were lysed 24 hrs later, protein concentration determined by Bradford assay and luciferase activity was measured for HeLa-CD4-LTR-Luc cells. Results corresponding to luciferase activity per protein concentration of each sample are shown as relative light unit (RLU). As for the OM10.1 cells, RNA was extracted using the RNA extraction kit (Qiagen) and DNA contamination was removed using Turbo-DNAse kit (Ambion). First-strand cDNA was synthesized using SuperscriptIII^TM first-strand cDNA kit (Invitrogen) and random hexamers as first-strand primers. qRT-PCR was performed with an aliquot of cDNA as template, using LightCycler? 480 SYBR Green I Master in a 20 µL reaction according to the manufacturer’s instructions. The mRNAs from each sample were used as negative control. Primer sequences for GAPDH (13) and all viral mRNAs as previously described (59). In HeLa-CD4-LTR-LacZ cells. It was performed as previously described (10). Briefly, cells were plated at 1×10^4 cells per well of a 96-well plate. Twenty-four hrs later HIV-1 NL4-3 strain was added in the presence of testing compound or DMSO. Seventy-two hrs post infection, cells were disrupted in lysis buffer (60 mM Na2HPO4, 40 mM NaH2PO4, 10 mM KCl, 10 mM MgSO4, 2.5 mM EDTA, 50 mM ß-mercaptoethanol, 0.125 % Nonidet P-40) and a quantitative chlorophenol red-ß-D-galactopyranoside (CPRG)-based (Boehringer Mannheim) assay was performed. The cell extracts were incubated in a reaction buffer (0.9 M phosphate buffer [pH 7.4], 9 mM MgCl2, 11 mM ß-mercaptoethanol, 7 mM CPRG) until a red color developed and measured with an LP400 (Becton Dickinson) plate reader at 572 nm.
# [2] = system: human umbilical vein endothelial cells (HUVECs); design: method as in PMID 16522087, PMID 17765550, PMID 26416749; details: read-out: EC50, antiproliferative; cited from earlier work
# [3] = system: CA-sensitive AML cell lines; design: method as in PMID 16522087, PMID 17765550, PMID 26416749; details: read-out: IC50, antileukemic activity; cited from earlier work
# Pep B-TAR interaction = biological target: T1, Pep B-TAR interaction (Human immunodeficiency virus type 1 group M subtype B, UniProt P20879); assay: EMSA of Tat's basic peptide (Pep B) with TAR; format: biochemical, HIV-1; details: Tat basic peptide residues 45 to 59
# T1 construct: Pep B is a peptide encompassing the basic domain of HIV Tat (^45ISYGRKKRRQRRRAP^59)
# Text: FIG 6 dCA binding to Tat disrupts Tat-TAR interaction. (A) EMSA of full-length Tat with TAR in the presence of dCA. Raltegravir (Ralt.) and deleted bulge TAR (ΔTAR) were used as negative controls. Data are representative of n = 3 independent experiments. (B) EMSA of Tat’s basic domain with TAR in the presence of increasing concentrations of dCA to Tat’s basic peptide. Pep B is a peptide encompassing the basic domain of HIV Tat (^45ISYGRKKRRQRRRAP^59). Pep C (^69LSKQPASQPRGDPTG^83) and unlabeled or cold TAR (TARc) were used as negative controls. Neomycin, which binds to Tat and TAR, was used as a positive control. Ratios of compounds (or TARc) concentrations to peptide are shown. Data are representative of n = 3 independent experiments. […] Shown are ITC results from binding of dCA (left) or Tat peptide (right) to TAR at 25°C. […] For the lower plots, results were converted to molar heats and plotted against the molar ratio of dCA or peptide to RNA. Data are representative of n = 2 independent experiments. (D) Tat-TAR interaction blocked by dCA in HeLa-CD4-LTR-Luc cells in vivo. Cells transfected with Tat or Tat Mut (arginine residues mutated to alanine in Tat’s basic domain) were incubated with DMSO or the indicated compounds (25 nM). Forty-eight hours later, cells were either lysed to determine the luciferase activity or cross-linked for ChIP assays. Luciferase activity was determined relative to protein concentration (Bradford assay) (Fig. S9A). Western blotting was performed to verify the amount of Tat under each condition (Fig. S9B). ChIP of Tat was followed by qRT-PCR of TAR DNA. The results are presented as percentage of input. The mean ± SEM is represented. Data are representative of n = 3 independent experiments. Statistical significance was determined using one-way ANOVA with post hoc Tukey’s test with 3 technical replicates. ns, not significant; ***, P < 0.0001.
# We also performed the same experiment with a peptide encompassing the basic domain of Tat (Pep B; residues 45 to 59) and dCA.
# EMSA With full-length Tat: similar protocol was performed as in Das et al. (60). […]
# intracellular Tat = biological target: T2, intracellular Tat (Human immunodeficiency virus type 1 group M subtype B, UniProt P69697); assay: Steady state of recombinant Tat in HeLa-CD4-LTR-Luc cells (Western blot); format: cell-based, HIV-1; details: 6 hours with compound, MG132 10 μM
# T2 construct: pTatC6H-1 (NIH AIDS Reagent Program) plasmid encoding C-terminal 6xHistidine Tat1-86 (HXB3, subtype B); made in house; host or cells: E. coli BL21 (plasmid pTatC6H-1, NIH AIDS Reagent Program)
# T2 sequence (P69697 whole entry): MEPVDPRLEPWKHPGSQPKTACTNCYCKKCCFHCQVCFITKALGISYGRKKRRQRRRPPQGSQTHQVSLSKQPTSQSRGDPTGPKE
# Experimental: FIG 5 dCA stabilizes Tat structure. (A) Trp fluorescence assays. (Left) Schematic of the assay. (Center) DMSO, dCA (7.5× Tat concentration) or raltegravir (Ralt.; 7.5× Tat concentration) was incubated with Tat. The fluorescence of the Trp^11 of Tat protein was measured at the indicated wavelengths. Acrylamide (250 mM) was used as a quenching control of Tat fluorescence. (Right) Peak absorbance (λmax) versus increasing fold ratios of compounds to Tat protein. Data are representative of n = 3 independent experiments. (B) DARTS assays. Tat was incubated with DMSO or dCA, at increasing concentrations, in the presence of increasing concentrations of proteinase K (PK). […] Data are representative of n = 2 independent experiments. (C) Steady state of Tat in the presence of dCA in vivo. HeLa-CD4-LTR-Luc cells were incubated with recombinant Tat and then washed and incubated with the indicated compounds for 6 hours. […] (Left) Western blot representative of n = 4 independent experiments. MG132 was used as a positive control of Tat protection from degradation, and raltegravir was used as a negative control. (Right) Densitometry of the Tat band normalized to the actin band. Results represent the mean ± SEM from n = 4 independent experiments. Statistical significance was determined using one-way ANOVA with post hoc Tukey’s test. ns, not significant; ***, P < 0.0001; **, P < 0.001.
# Next, we determined the half-life of recombinant Tat in HeLa-CD4-LTR-Luc cells in the presence of dCA (Fig. 5C). We incubated recombinant Tat with cells for 4 hours, and after several washes to remove extracellular Tat protein, we incubated cells with DMSO, dCA, or raltegravir for an additional 6 hours. Western blotting with anti-His antibody was performed to reveal intracellular Tat. […]
# Half-life of Tat in vivo. […] Total protein concentration was assessed by Bradford assay and Tat protein in each condition determined by western blot with an anti-His antibody at 1:1500 dilution (Thermofisher). […]
Compound,CC50 at 72 h [1] [nM],IC50 (NL4-3 strain) [nM],also measured
Cc1n[nH]c2cc(C3=CCC4C3(C)CC=C3C=C5C(O)C(O)C(N(C)C)CC56CCC34O6)ccc12 (centres unmarked) [# 6],12100 ± 800,67.5 ± 6.8,–
CC12CC=C3C=C4C(O)C(O)C(N)CC45CCC3(O5)C1CC=C2c1ccc2ccncc2c1 (centres unmarked) [# 4],23100 ± 300,4 ± 0.5,–
"CN(C)[C@H]1C[C@@]23CC[C@@]4(O2)C(=CC[C@]2(C)[C@@H](c5ccc6ccncc6c5)CC[C@H]24)C=C3[C@@H](O)[C@@H]1O [CA, cortistatin A]",–,–,EC50 [2]: 350 nM; IC50 [3]: ~10 nM
CN(C)C1CC23CCC4(O2)C(=CCC2(C)C(c5ccc6cnncc6c5)=CCC24)C=C3C(O)C1O (centres unmarked) [# 5],16400,141,–
neomycin,–,–,inhibition of Pep B-TAR interaction (EMSA) (Pep B-TAR interaction): inhibited the interaction of Pep B with TAR
CC(C)C[C@@H](C=O)NC(=O)[C@H](CC(C)C)NC(=O)[C@H](CC(C)C)NC(=O)OCc1ccccc1 [MG132] (Cbz-Leu-Leu-Leu-aldehyde),–,–,percentage of remaining Tat (intracellular Tat): 40%
CC(=O)N(C)C1CC23CCC4(O2)C(=CCC2(C)C(c5ccc6ccncc6c5)=CCC24)C=C3C(O)C1O (centres unmarked) [# 3],5600,37 ± 5.8,–
CN(C)C1CC23CCC4(O2)C(=CCC2(C)C(c5ccc6ccncc6c5)C(=O)CC42)C=C3C(O)C1O (centres unmarked) [# 9],> 50000,0.5 ± 0.1,–
